Laboratory results reported in ChEMBL document CHEMBL6103650, “Hybrid Molecules of Benzothiazole and Hydroxamic Acid as Dual-Acting Biofilm Inhibitors with Antibacterial Synergistic Effect against Pseudomonas aeruginosa Infections” (J Med Chem, 2025).
Activity calls are given as the source filed them. The calls are words filed in the database; no cut-off is given here.

Legend:
[1] = system: Pseudomonas aeruginosa; experiment: Antibiofilm activity against Pseudomonas aeruginosa PA1129 assessed as inhibition of biofilm formation incubated for 24 hrs by crystal violet staining based analysis; format: functional, organism-based
[2] = system: Pseudomonas aeruginosa; experiment: Antibacterial activity against Pseudomonas aeruginosa PAO1 infected in BALB/c mouse wound infection model assessed as reduction in wound area at 2.5 uM administered to wound once a day for 3 days and measured after 9 days in dropwise manner in presence of Tob; format: functional; set-up: scale not given: the % may be the effect or the level left; conditions: time 12 day
[3] = system: Pseudomonas aeruginosa; experiment: Anti-motility activity against Pseudomonas aeruginosa PAO1 assessed as reduction in pili formation at 0.3125 to 10 uM incubated for 16 hrs by SEM analysis; format: functional, organism-based; conditions: dose 0.3125-10 µM
[4] = Toxicity in BALB/c mouse wound infection model assessed as spleen damage measured for 9 days by H and E staining based analysis; format: tissue-based; conditions: in vivo, 216 h, time 9 day
[5] = system: Pseudomonas aeruginosa; experiment: Antibacterial activity against Pseudomonas aeruginosa PAO1 infected in BALB/c mouse wound infection model assessed as bacterial survival rate in wound at 2.5 uM administered to wound once a day for 3 days in dropwise manner in presence of tobramycin; format: functional; conditions: PAO1, 72 h, time 3 day
[6] = Toxicity in BALB/c mouse wound infection model assessed as change in body weight measured for 9 days; conditions: in vivo, 216 h, time 9 day
[7] = Hemolytic activity in rabbit red blood cells at < 40 uM; format: toxicity, cell-based, Oryctolagus cuniculus; conditions: erythrocyte
[8] = Toxicity in zebrafish assessed as survival rate at <100 uM measured upto 120 hrs; set-up: species or system Danio rerio; conditions: in vivo
[9] = system: Pseudomonas aeruginosa; experiment: Antibacterial activity against Pseudomonas aeruginosa PAO1 infected in BALB/c mouse wound infection model assessed as bacterial survival rate in wound at 2.5 uM administered to wound once a day for 3 days in dropwise manner in presence of ciprofloxacin; format: functional; conditions: PAO1, 72 h, time 3 day
[10] = system: Pseudomonas aeruginosa; experiment: Antivirulence activity in Pseudomonas aeruginosa PAO1 assessed as reduction in extracellular polysaccharides production incubated for 24 hrs; format: functional, organism-based; conditions: dose 0.3125-10 µM
[11] = system: Pseudomonas aeruginosa; experiment: Antibacterial activity against Pseudomonas aeruginosa PAO1 assessed as inhibition of bacterial growth incubated for 24 hrs by serial dilution method; format: functional
[12] = Toxicity in BALB/c mouse wound infection model assessed as heart damage measured for 9 days by H and E staining based analysis; format: tissue-based; conditions: in vivo, 216 h, time 9 day
[13] = system: Pseudomonas aeruginosa; experiment: Antibiofilm activity against Pseudomonas aeruginosa PAO1 assessed as decrease in biofilm formation incubated for 24 hrs by crystal violet staining based analysis; format: functional, organism-based; conditions: dose 0.3125-10 µM
[14] = Toxicity in BALB/c mouse assessed as lung damage by H and E staining based analysis; conditions: in vivo
[15] = system: Pseudomonas aeruginosa; experiment: Antibacterial activity against Pseudomonas aeruginosa PAO1 infected in BALB/c mouse wound infection model assessed as reduction in wound area at 2.5 uM administered to wound once a day for 3 days and measured after 9 days in dropwise manner; format: functional; set-up: scale not given: the % may be the effect or the level left; conditions: time 12 day
[16] = Toxicity in BALB/c mouse wound infection model assessed as liver damage measured for 9 days by H and E staining based analysis; format: tissue-based; conditions: in vivo, 216 h, time 9 day
[17] = system: Pseudomonas aeruginosa; experiment: Antibiofilm activity against Pseudomonas aeruginosa PAO1 assessed as fold increase in pyoverdine level at 10 uM incubated for 2 hrs by fluorescence based analysis; format: functional
[18] = system: Pseudomonas aeruginosa; experiment: Antibacterial activity against Pseudomonas aeruginosa PAO1 infected in BALB/c mouse wound infection model assessed as reduction in wound area at 2.5 uM administered to wound once a day for 3 days and measured after 9 days in dropwise manner in presence of ciprofloxacin; format: functional; set-up: scale not given: the % may be the effect or the level left; conditions: time 12 day
[19] = system: Pseudomonas aeruginosa; experiment: Antibiofilm activity against Pseudomonas aeruginosa PAO1 assessed as increase in pyoverdine level incubated for 2 hrs by fluorescence based analysis; format: functional, organism-based; conditions: dose 0.3125-10 µM
[20] = system: Pseudomonas aeruginosa; experiment: Antibiofilm activity against Pseudomonas aeruginosa PAO1 assessed as inhibition of biofilm formation at 0.15625 uM incubated for 24 hrs by crystal violet staining based analysis relative to control; format: functional
[21] = system: Pseudomonas aeruginosa; experiment: Antivirulence activity in Pseudomonas aeruginosa PAO1 assessed as reduction in pyocyanin production incubated for 24 hrs; format: functional, organism-based; conditions: dose 10.0 µM
[22] = system: Pseudomonas aeruginosa; experiment: Antibacterial activity against Pseudomonas aeruginosa PAO1 infected in BALB/c mouse wound infection model assessed as bacterial survival rate in wound at 1 mg/mL administered to wound once a day for 3 days in dropwise manner; format: functional; conditions: PAO1, 72 h, time 3 day
[23] = system: Pseudomonas aeruginosa; experiment: Antibiofilm activity against Pseudomonas aeruginosa PAO1 assessed as inhibition of biofilm formation at 0.15625 to 2.5 uM incubated for 24 hrs by crystal violet staining based analysis; format: functional, organism-based; conditions: dose 0.15625-2.5 µM
[24] = system: Pseudomonas aeruginosa; experiment: Antibiofilm activity against Pseudomonas aeruginosa PAO1 assessed as reduction in pFe(III) content incubated for 24 hrs by cell total iron colorimetric assay; format: functional, organism-based; conditions: dose 0.3125-10 µM
[25] = Inhibition of quorum sensing system in Pseudomonas aeruginosa PAO1-pqsa-gfp assessed as reduction in fluorescence intensity at 0.3125 to 10 uM measured upto 16 hrs by GFP reporter strain assay; conditions: dose 0.3125-10 µM
[26] = system: Pseudomonas aeruginosa; experiment: Antibiofilm activity against Pseudomonas aeruginosa PAO1 harboring pvds-deficient mutant assessed as inhibition of biofilm formation at 0.3125 to 10 uM incubated for 24 hrs by crystal violet staining based analysis; format: functional, organism-based; conditions: dose 0.3125-10 µM
[27] = system: Pseudomonas aeruginosa; experiment: Antibiofilm activity against Pseudomonas aeruginosa PAO1 assessed as fold increase in pyochelin level at 10 uM incubated for 2 hrs by fluorescence based analysis; format: functional
[28] = system: Pseudomonas aeruginosa; experiment: Antibiofilm activity against Pseudomonas aeruginosa PA1121 assessed as inhibition of biofilm formation incubated for 24 hrs by crystal violet staining based analysis; format: functional, organism-based
[29] = Toxicity in BALB/c mouse assessed as heart damage by H and E staining based analysis; format: tissue-based; conditions: in vivo
[30] = system: Pseudomonas aeruginosa; experiment: Antibiofilm activity against Pseudomonas aeruginosa PAO1 overexpressing fpvA assessed as inhibition of biofilm formation at 0.3125 to 10 uM incubated for 24 hrs by crystal violet staining based analysis; format: functional, organism-based; conditions: dose 0.3125-10 µM
[31] = Toxicity in BALB/c mouse assessed as kidney damage by H and E staining based analysis; conditions: in vivo
[32] = system: Pseudomonas aeruginosa; experiment: Anti-motility activity against Pseudomonas aeruginosa PAO1 assessed as reduction in swimming motility at 10 uM incubated for 24 hrs relative to control; format: functional; set-up: scale not given: the % may be the effect or the level left
[33] = system: Pseudomonas aeruginosa; experiment: Antibiofilm activity against Pseudomonas aeruginosa PAO1 assessed as decrease in colony forming counts incubated for 24 hrs by crystal violet staining based analysis; format: functional, organism-based; conditions: dose 0.15625-2.5 µM
[34] = system: RAW264.7; experiment: Cytotoxicity against mouse RAW264.7 cells assessed as reduction in cell viability at < 100 uM incubated for 24 hrs by MTT assay; format: toxicity, cell-based; conditions: raw264.7, 24 h
[35] = Toxicity in BALB/c mouse assessed as liver damage by H and E staining based analysis; format: tissue-based; conditions: in vivo
[36] = system: Pseudomonas aeruginosa; experiment: Synergistic […] activity against Pseudomonas aeruginosa PAO1 assessed as fractional inhibitory concentration index measured for 20 hrs in presence of tobramycin by microdilution checkboard assay; format: functional
[37] = system: Pseudomonas aeruginosa; experiment: Anti-motility activity against Pseudomonas aeruginosa PAO1 assessed as reduction in swarming motility incubated for 24 hrs; format: functional, organism-based; conditions: dose 0.3125-10 µM
[38] = Toxicity in BALB/c mouse assessed as change in body weight; conditions: in vivo
[39] = system: Pseudomonas aeruginosa; experiment: Antibiofilm activity against Pseudomonas aeruginosa PA1167 assessed as inhibition of biofilm formation incubated for 24 hrs by crystal violet staining based analysis; format: functional, organism-based
[40] = system: Pseudomonas aeruginosa; experiment: Antibiofilm activity against Pseudomonas aeruginosa PAO1 assessed as reduction in iron content at 10 uM incubated for 24 hrs by cell total iron colorimetric assay relative to control; format: functional; set-up: scale not given: the % may be the effect or the level left
[41] = system: Pseudomonas aeruginosa; experiment: Antibiofilm activity against Pseudomonas aeruginosa PA108 assessed as inhibition of biofilm formation incubated for 24 hrs by crystal violet staining based analysis; format: functional, organism-based
[42] = system: Pseudomonas aeruginosa; experiment: Antibacterial activity against Pseudomonas aeruginosa PAO1 infected in BALB/c mouse wound infection model measured after 3 days; format: functional, organism-based; conditions: time 3.0 day

Q: With `COc1ccc2nc(NCC(=O)NCCCCC(=O)NO)sc2c1` as the compound, how does the Activity [1] read?
A: Active

Q: What about the Activity [2] of the same compound?
A: 35%

Q: And the Activity [3]?
A: Active

Q: What about the Activity [4] of the same compound?
A: Non-toxic

Q: And the survival at 2.5 µM [5]?
A: 0.97%

Q: What about the Activity [6] of the same compound?
A: Non-toxic

Q: What about the Activity [7] of the same compound?
A: Non-toxic

Q: What about the Activity [8] of the same compound?
A: Non-toxic

Q: And the survival at 2.5 µM [9]?
A: 0.45%

Q: What about the Activity [10] of the same compound?
A: Dose-dependent-effect

Q: What about the MIC [11] of the same compound?
A: > 256 µM

Q: And the Activity [12]?
A: Non-toxic

Q: What about the Activity [13] of the same compound?
A: Dose-dependent-effect

Q: And the Activity [14]?
A: Non-toxic

Q: And the Activity [15]?
A: 55%

Q: And the Activity [16]?
A: Non-toxic

Q: And the “fold change (FC)” value [17]?
A: 3.4

Q: And the Activity [18]?
A: 38%

Q: And the Activity [19]?
A: Dose-dependent-effect

Q: What about the inhibition at 0.1562 µM [20] of the same compound?
A: 40%

Q: And the Activity [21]?
A: Dose-dependent-effect

Q: And the survival at 1000 µg/mL [22]?
A: 0%

Q: And the Activity [23]?
A: inactive

Q: And the Activity [24]?
A: Dose-dependent-effect

Q: What about the inhibition [25] of the same compound?
A: Active

Q: What about the Activity [26] of the same compound?
A: No effect

Q: And the “fold change (FC)” value [27]?
A: 1.7

Q: What about the Activity [28] of the same compound?
A: Active

Q: What about the Activity [29] of the same compound?
A: Non-toxic

Q: What about the Activity [30] of the same compound?
A: No effect

Q: And the Activity [31]?
A: Non-toxic

Q: What about the Activity [32] of the same compound?
A: 64%

Q: And the Activity [33]?
A: Dose-dependent-effect

Q: What about the Activity [34] of the same compound?
A: Non-toxic

Q: And the Activity [35]?
A: Non-toxic

Q: What about the “fractional inhibitory concentration index (FICI)” value [36] of the same compound?
A: 0.29

Q: And the Activity [37]?
A: Dose-dependent-effect

Q: And the Activity [38]?
A: Non-toxic

Q: What about the Activity [39] of the same compound?
A: Active

Q: And the Activity [40]?
A: 57%

Q: And the Activity [41]?
A: Active

Q: What about the Activity [42] of the same compound?
A: No effect
